The record followed here is ChEMBL document CHEMBL5465560, “Selectivity Literature for EUbOPEN Chemogenomic Library” (2024).

Assay [1] deals with Mitogen-activated protein kinase kinase kinase 4 (Homo sapiens) (UniProt Q9Y6R4). Kind of assay: Selectivity interaction (ActivX KiNativ screen (ex vivo kinase selectivity in human PBMCs)) EUB0001619a MAP3K4. To be noted: PBMC, at 1 µM. The class given is cell-based.
For assay [2], the target named is T1, cGMP-dependent protein kinase 1 (Homo sapiens) (UniProt Q13976).
T1 sequence (whole entry): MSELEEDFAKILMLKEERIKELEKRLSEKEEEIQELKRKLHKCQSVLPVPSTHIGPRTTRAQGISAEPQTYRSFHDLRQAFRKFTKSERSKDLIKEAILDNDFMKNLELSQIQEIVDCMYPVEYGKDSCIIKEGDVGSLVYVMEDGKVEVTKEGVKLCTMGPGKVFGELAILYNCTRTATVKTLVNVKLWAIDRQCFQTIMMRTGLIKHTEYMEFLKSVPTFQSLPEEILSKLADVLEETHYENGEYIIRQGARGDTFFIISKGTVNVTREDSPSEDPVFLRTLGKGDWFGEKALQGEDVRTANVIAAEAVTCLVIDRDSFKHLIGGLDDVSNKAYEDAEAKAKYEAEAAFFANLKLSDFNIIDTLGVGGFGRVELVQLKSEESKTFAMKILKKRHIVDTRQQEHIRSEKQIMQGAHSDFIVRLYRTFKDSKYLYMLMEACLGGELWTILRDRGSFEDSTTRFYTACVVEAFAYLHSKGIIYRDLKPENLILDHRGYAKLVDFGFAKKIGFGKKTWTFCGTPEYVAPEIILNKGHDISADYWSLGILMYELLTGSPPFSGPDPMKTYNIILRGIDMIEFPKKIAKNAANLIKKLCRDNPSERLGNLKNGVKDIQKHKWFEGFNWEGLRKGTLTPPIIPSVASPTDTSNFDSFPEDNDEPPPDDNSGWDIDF
The following applies: at 10 µM.

Assay [3] has as its target Receptor-type tyrosine-protein kinase FLT3 (Homo sapiens) (UniProt P36888). In words: Selectivity interaction (SelectScreen profiling (Invitrogen)) EUB0000607a FLT3. To be noted: at 2 µM.
Assay [4] has as its target Tyrosine-protein kinase SYK (Homo sapiens, UniProt P43405). In words: Selectivity interaction (SelectScreen profiling (Invitrogen)) EUB0000607a SYK. The following applies: at 2 µM.
Assay [5] deals with T2, Ankyrin repeat and protein kinase domain-containing protein 1 (Homo sapiens) (UniProt Q8NFD2).
T2 sequence (whole entry): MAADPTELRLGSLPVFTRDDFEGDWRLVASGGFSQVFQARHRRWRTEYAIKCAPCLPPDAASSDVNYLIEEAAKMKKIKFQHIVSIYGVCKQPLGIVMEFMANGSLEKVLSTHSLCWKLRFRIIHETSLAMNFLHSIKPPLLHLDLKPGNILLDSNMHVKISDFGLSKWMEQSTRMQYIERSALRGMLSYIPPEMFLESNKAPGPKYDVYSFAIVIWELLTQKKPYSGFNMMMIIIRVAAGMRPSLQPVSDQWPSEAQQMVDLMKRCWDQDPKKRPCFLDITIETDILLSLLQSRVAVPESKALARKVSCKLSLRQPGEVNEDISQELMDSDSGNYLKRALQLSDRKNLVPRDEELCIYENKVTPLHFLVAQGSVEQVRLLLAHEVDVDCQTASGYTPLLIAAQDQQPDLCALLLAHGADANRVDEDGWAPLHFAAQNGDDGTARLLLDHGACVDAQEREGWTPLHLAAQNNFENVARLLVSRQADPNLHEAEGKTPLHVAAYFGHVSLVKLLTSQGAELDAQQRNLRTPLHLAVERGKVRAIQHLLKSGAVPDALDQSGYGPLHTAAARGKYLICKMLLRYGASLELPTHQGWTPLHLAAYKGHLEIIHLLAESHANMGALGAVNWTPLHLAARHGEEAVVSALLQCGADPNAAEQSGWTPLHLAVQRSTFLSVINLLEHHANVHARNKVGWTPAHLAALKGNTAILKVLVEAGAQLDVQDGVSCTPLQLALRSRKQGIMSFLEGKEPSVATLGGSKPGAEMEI
In words: Selectivity interaction (KinomeScan (DiscoverX)) EUB0000607a ANKK1. To be noted: at 10 µM.

For assay [6], the target named is Serine/threonine-protein kinase 32A (Homo sapiens) (UniProt Q8WU08). The following applies: at 10 µM.
Sequence of Serine/threonine-protein kinase 32A (Homo sapiens) (Q8WU08 whole entry): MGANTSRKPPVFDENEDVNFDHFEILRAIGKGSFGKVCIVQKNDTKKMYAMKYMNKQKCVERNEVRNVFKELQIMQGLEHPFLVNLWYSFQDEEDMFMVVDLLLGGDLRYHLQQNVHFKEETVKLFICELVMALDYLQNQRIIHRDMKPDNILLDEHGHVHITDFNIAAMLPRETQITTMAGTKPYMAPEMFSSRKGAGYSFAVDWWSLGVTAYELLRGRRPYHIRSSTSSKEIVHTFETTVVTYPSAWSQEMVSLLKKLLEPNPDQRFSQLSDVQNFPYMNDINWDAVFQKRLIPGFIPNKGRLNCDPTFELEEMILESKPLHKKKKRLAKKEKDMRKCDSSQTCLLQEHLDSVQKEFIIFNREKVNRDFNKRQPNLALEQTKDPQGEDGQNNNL
For assay [7], the target named is MAP kinase-interacting serine/threonine-protein kinase 2 (Homo sapiens, UniProt Q9HBH9). Kind of assay: Selectivity interaction (Kinase panel (Invitrogen)) EUB0000639a MKNK2. To be noted: at 200 nM.
Sequence of MAP kinase-interacting serine/threonine-protein kinase 2 (Q9HBH9 whole entry, looked up): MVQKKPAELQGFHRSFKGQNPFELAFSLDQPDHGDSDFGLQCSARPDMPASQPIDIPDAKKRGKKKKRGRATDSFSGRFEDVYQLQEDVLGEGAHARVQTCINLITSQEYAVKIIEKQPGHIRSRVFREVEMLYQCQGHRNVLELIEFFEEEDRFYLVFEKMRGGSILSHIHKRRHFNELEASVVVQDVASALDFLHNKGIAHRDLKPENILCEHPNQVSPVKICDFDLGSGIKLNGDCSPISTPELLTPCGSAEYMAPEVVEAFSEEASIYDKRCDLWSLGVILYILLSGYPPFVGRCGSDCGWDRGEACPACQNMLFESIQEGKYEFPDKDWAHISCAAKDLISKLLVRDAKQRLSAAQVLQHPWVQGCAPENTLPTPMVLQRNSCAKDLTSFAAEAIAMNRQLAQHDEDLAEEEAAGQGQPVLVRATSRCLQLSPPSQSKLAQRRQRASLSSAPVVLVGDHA
The target in assay [8] is T3, Aurora kinase C (Homo sapiens) (UniProt Q9UQB9).
T3 sequence (whole entry): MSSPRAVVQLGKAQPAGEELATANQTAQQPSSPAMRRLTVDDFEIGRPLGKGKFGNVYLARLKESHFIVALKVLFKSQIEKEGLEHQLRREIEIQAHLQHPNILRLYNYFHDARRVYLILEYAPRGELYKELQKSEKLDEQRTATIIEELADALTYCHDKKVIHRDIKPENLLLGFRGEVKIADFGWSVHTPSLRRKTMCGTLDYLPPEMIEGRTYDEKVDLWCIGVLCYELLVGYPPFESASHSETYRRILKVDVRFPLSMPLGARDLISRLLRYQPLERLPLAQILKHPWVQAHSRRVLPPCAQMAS
Kind of assay: Selectivity interaction (ActivX KiNativ screen (kinase selectivity in THP-1 cell lysates)) EUB0000639a AURKC. To be noted: lysate. The class given is subcellular.

Assay [9] addresses Calcium/calmodulin-dependent protein kinase type II subunit delta (Homo sapiens) (UniProt Q13557). In words: Selectivity interaction (KinomeScan (DiscoverX)) EUB0000045b CAMK2D.
In assay [10] the target is Mitogen-activated protein kinase 6 (Homo sapiens) (UniProt Q16659). Kind of assay: Selectivity interaction (Ambit KINOMEscan and KiNATiv profiling in Jurkat cells) EUB0000090b MAPK6. The following applies: at 1 µM. The class given is cell-based.
The target in assay [11] is Mitogen-activated protein kinase kinase kinase 4 (Homo sapiens) (UniProt Q9Y6R4). Kind of assay: Selectivity interaction (KinomeScan (DiscoverX)) EUB0000092b MAP3K4. The following applies: at 10 µM.
Assay [12] has as its target Mitogen-activated protein kinase 10 (Homo sapiens, UniProt P53779). Kind of assay: Selectivity interaction (Millipore kinase profiler) EUB0000124b MAPK10. To be noted: at 10 µM.
The target in assay [13] is Phosphatidylinositol 4,5-bisphosphate 3-kinase catalytic subunit beta isoform (Homo sapiens) (UniProt P42338). Kind of assay: Selectivity interaction (Kinase panel (KiNativ target engagement assay in Jurkat cells)) EUB0001635a PIK3CB. The class given is cell-based. The following applies: Selectivity number of off-targets 0.0, Selectivity number of targets 233.0, Source Knowledge https://www.sciencedirect.com/science/article/pii/S2451945619300674?via%3Dihub, at 1 µM.

Sequence of Mitogen-activated protein kinase kinase kinase 4 (Homo sapiens) (Q9Y6R4 whole entry): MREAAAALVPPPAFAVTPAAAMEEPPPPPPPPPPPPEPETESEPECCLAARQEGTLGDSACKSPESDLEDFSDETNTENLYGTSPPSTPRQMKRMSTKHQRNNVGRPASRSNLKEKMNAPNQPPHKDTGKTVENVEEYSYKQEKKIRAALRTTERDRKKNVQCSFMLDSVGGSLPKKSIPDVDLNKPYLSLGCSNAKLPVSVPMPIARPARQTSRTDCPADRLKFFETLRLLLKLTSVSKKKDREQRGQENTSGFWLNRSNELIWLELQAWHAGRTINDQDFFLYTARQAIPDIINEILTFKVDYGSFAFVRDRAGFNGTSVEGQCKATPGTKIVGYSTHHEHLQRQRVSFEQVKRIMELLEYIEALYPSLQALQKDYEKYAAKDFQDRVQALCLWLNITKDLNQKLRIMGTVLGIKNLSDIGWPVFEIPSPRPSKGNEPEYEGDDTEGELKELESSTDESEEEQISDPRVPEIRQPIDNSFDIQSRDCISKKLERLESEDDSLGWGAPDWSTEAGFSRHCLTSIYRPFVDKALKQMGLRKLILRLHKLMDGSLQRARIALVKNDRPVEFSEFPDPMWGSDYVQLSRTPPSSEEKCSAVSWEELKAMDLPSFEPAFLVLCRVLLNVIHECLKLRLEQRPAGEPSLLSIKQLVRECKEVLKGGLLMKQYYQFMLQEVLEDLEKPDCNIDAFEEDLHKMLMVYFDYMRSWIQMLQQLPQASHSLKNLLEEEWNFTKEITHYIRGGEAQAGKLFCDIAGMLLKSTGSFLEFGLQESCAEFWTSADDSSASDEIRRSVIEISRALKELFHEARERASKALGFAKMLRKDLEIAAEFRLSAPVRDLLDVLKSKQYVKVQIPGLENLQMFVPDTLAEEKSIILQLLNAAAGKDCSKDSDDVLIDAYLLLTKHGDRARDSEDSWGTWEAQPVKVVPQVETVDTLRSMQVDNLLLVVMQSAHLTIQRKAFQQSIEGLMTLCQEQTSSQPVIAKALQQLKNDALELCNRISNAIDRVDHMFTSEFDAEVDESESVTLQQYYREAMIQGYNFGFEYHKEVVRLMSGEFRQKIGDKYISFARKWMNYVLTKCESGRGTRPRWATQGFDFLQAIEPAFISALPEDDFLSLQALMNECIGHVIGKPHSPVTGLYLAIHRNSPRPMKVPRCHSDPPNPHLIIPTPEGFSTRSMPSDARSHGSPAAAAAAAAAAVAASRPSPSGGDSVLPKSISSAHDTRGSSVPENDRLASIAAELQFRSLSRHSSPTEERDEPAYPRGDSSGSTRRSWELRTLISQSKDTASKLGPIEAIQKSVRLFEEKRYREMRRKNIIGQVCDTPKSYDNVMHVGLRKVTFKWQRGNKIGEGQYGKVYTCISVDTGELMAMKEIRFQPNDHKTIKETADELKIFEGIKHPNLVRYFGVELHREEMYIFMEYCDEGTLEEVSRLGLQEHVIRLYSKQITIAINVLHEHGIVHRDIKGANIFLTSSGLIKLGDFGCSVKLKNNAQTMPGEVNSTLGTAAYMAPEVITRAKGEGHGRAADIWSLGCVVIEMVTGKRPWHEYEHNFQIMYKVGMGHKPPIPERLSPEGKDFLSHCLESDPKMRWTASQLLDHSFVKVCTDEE
Sequence of Calcium/calmodulin-dependent protein kinase type II subunit delta (Homo sapiens) (Q13557 whole entry): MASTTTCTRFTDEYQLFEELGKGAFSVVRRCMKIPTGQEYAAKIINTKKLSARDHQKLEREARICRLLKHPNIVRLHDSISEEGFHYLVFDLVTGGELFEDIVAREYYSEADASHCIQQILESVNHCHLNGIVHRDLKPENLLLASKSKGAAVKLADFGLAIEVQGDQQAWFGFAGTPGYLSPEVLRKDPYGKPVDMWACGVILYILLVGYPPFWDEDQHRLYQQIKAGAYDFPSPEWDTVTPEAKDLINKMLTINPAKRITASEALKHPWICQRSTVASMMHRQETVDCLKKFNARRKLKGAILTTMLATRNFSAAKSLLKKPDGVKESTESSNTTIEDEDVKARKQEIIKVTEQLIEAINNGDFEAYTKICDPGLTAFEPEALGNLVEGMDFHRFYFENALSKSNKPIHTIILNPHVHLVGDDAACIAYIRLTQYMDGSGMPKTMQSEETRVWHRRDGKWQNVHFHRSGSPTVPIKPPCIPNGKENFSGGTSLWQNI
Sequence of Receptor-type tyrosine-protein kinase FLT3 (Homo sapiens) (P36888 whole entry): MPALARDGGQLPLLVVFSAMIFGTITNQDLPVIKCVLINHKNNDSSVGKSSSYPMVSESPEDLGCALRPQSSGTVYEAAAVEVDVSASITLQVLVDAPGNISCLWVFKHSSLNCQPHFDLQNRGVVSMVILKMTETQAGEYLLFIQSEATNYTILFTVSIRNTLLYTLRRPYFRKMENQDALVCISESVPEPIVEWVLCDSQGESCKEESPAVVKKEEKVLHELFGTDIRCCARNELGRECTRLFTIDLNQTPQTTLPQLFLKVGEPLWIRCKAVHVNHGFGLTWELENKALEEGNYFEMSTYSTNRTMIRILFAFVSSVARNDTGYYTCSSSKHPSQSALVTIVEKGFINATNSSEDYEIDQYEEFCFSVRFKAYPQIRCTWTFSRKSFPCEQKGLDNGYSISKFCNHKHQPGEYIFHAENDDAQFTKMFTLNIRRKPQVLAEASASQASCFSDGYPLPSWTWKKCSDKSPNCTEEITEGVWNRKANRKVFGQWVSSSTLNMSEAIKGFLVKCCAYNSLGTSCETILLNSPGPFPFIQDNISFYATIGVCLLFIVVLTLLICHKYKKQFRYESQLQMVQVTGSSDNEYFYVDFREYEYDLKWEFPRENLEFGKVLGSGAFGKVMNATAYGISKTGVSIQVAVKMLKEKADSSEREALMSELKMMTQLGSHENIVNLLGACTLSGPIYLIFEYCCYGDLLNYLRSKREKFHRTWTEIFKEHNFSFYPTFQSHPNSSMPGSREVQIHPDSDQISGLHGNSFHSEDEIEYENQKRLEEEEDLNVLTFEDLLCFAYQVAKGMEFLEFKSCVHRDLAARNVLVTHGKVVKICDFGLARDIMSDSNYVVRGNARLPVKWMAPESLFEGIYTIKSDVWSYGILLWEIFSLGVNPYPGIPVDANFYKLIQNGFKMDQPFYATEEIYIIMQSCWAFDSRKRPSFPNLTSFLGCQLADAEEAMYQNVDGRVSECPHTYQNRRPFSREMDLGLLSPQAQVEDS
Sequence of Mitogen-activated protein kinase 10 (P53779 whole entry, canonical isoform): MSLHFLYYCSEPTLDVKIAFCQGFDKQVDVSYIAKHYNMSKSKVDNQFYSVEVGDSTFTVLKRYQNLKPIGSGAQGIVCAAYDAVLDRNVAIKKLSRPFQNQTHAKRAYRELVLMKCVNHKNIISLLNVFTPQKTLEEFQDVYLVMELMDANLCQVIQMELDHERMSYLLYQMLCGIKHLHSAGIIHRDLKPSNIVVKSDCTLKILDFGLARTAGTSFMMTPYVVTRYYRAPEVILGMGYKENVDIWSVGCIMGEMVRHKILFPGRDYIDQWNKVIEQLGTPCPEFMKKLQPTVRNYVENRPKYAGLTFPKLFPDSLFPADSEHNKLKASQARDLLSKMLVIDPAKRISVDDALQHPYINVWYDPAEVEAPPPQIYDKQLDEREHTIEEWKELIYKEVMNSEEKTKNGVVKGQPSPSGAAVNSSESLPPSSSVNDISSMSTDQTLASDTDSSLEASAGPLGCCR

Take `N#Cc1cccc(-c2c[nH]c3ncnc(N4CCOCC4)c23)c1`: the % of inhibition in assay [1] came out at 30%. Turning to `CCN(CC)CCCCNc1ncc2cc(-c3cc(OC)cc(OC)c3)c(NC(=O)NC(C)(C)C)nc2n1`, the % of control in assay [2] worked out at 100%. For `CNC(=O)Nc1ccc(-c2nc(N3CC4CCC(C3)O4)c3cnn(C4CCC5(CC4)OCCO5)c3n2)cc1`, the % of inhibition in assay [3] turned out to be 17%; in assay [4] it was 1%. This compound also came in with a % of control in assay [5] of 77%. Compound `Cc1cc([C@@H](C)Nc2ccccc2C(=O)O)c2nc(N3CCOCC3)cc(=O)n2c1` [AZD-6482] registered a % of control in [6] of 89%. As to `CC[C@@H]1[C@H](F)C(=O)N[C@@H]1COc1nccc2cc(C(N)=O)c(OC)cc12` [ZIMLOVISERTIB], the % of inhibition was 86% in assay [7]; 4.9% in assay [8] (at 0.01 µM); -1.3% in [8] (at 0.04 µM); -1% in [8] (at 0.2 µM); 20% in assay [8] (at 1 µM); 64.4% in assay [8] (at 5 µM). As for `C=CC(=O)Nc1cc(-n2c(=O)ccc3cnc4ccc(-c5ccc(NS(C)(=O)=O)cc5)cc4c32)ccc1C`, the % of control in assay [9] (at 1 µM) amounted to 100%; in assay [9] (at 10 µM), 92%. `CN(C)C/C=C/C(=O)Nc1ccc(C(=O)N2CCCC(Nc3ncc(Cl)c(-c4c[nH]c5ccccc45)n3)C2)cc1` (stereo not drawn) had a % of control in [10] of 40%. In assay [11], `CCC(=O)N1CCN(c2ccc(-n3c(=O)ccc4cnc5ccc(-c6cnc7ccccc7c6)cc5c43)cc2C(F)(F)F)CC1` displayed a % of control of 47%.

With `CC(=O)Nc1cccc(-n2c(=O)n(C3CC3)c(=O)c3c(Nc4ccc(I)cc4F)n(C)c(=O)c(C)c32)c1`, in assay [12], the % of control stood at 76%. With `C=CC(=O)Nc1ccc(C(=O)Nc2[nH]nc3c2CN(C(=O)N[C@H](CN(C)C)c2ccccc2)C3(C)C)cc1`, the % of engagement in [13] is -21.2%.
